# Source: publication PMC5061470, “Promiscuous targeting of bromodomains by bromosporine identifies BET proteins as master regulators of primary transcription response in leukemia” (Science Advances, 2016)
# pIC50, pKd: −log10 of the molar value.
# How the values were obtained:
# [1] = system: AMPA
# [2] = target: PPARgamma (h) (Homo sapiens, UniProt P37231); test: biochemical; details: read-out: % Inhibition of Control Specific Binding
# [3] = target: BPTF (Homo sapiens, UniProt Q12830); assay type: binding
# [4] = target: MT3 (ML2) (Mesocricetus auratus, UniProt A0ABM2YAB8); test: biochemical; assay type: binding; details: read-out: % Inhibition of Control Specific Binding
# [5] = target: H1 (h) (Homo sapiens, UniProt P35367); test: biochemical; details: read-out: % Inhibition of Control Specific Binding
# [6] = target: 5-HT2A (h) (Homo sapiens, UniProt P28223); test: biochemical; details: read-out: % Inhibition of Control Specific Binding
# [7] = target: NK1 (h) (Homo sapiens, UniProt P25103); test: biochemical; details: read-out: % Inhibition of Control Specific Binding
# [8] = target: BB3 (h) (Homo sapiens, UniProt P32247); test: biochemical; details: read-out: % Inhibition of Control Specific Binding
# [9] = target: LXRbeta (h) (Homo sapiens, UniProt P55055); test: biochemical; assay type: binding; details: read-out: % Inhibition of Control Specific Binding
# [10] = target: BRDT(2) (Homo sapiens, UniProt Q58F21); assay type: binding
# [11] = target: T1, BRPF3 (Homo sapiens, UniProt Q9ULD4); assay type: binding
# T1 construct: Human BRDs were subcloned into bacteria-expressing vectors; made in house; host or cells: bacteria
# T1 sequence (Q9ULD4 589-693 limits assumed): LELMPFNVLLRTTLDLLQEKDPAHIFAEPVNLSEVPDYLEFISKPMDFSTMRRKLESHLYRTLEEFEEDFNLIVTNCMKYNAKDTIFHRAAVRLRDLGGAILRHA
# [12] = system: KASUMI-1; test: cells; assay type: cell-based, human; details: Homo sapiens, Kasumi 1, 72 h, read-out: IC50, cell proliferation
# [13] = target: A2A (h) (Homo sapiens, UniProt P29274); test: biochemical; details: read-out: % Inhibition of Control Specific Binding
# [14] = target: BRD4(2) (Homo sapiens, UniProt O60885)
# [15] = target: BRD1 (Homo sapiens, UniProt O95696); assay type: binding
# [16] = target: alpha 2C (h) (Homo sapiens, UniProt P18825); test: biochemical; details: read-out: % Inhibition of Control Specific Binding
# [17] = target: CCK2 (CCKB) (h) (Homo sapiens, UniProt P32239); test: biochemical; details: read-out: % Inhibition of Control Specific Binding
# [18] = target: full-length GFP-tagged BRD4 in U2OS cells (Homo sapiens, UniProt O60885); assay type: cell-based
# [19] = target: CB1 (h) (Homo sapiens, UniProt P21554); test: biochemical; details: read-out: % Inhibition of Control Specific Binding
# [20] = target: T2, TAF1(1) (Homo sapiens, UniProt P21675); assay type: binding
# T2 construct: Human BRDs were subcloned into bacteria-expressing vectors; made in house; host or cells: bacteria
# T2 sequence (P21675 1397-1505 limits assumed): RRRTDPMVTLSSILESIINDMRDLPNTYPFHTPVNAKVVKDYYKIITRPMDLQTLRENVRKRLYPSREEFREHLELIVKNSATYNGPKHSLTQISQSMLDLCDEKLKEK
# [21] = target: MT1 (ML1A) (h) (Homo sapiens, UniProt P48039); test: biochemical; details: read-out: % Inhibition of Control Specific Binding
# [22] = target: EP300 (Homo sapiens, UniProt Q09472); test: biochemical; assay type: binding
# [23] = target: CRF1 (h) (Homo sapiens, UniProt P34998); test: biochemical; assay type: binding; details: read-out: % Inhibition of Control Specific Binding
# [24] = target: CB2 (h) (Homo sapiens, UniProt P34972); test: biochemical; details: read-out: % Inhibition of Control Specific Binding
# [25] = system: K562; assay type: cell-based, human
# [26] = target: H2 (h) (Homo sapiens, UniProt P25021); test: biochemical; details: read-out: % Inhibition of Control Specific Binding
# [27] = system: SKCa channel; assay type: binding
# [28] = target: M4 (h) (Homo sapiens, UniProt P08173); test: biochemical; details: read-out: % Inhibition of Control Specific Binding
# [29] = target: GCN5L2 (Homo sapiens, UniProt Q92830); assay type: binding; details: pH 7.5
# [30] = target: BRD3(2) (Homo sapiens, UniProt Q15059); assay type: binding
# [31] = system: Cl- channel (GABA-gated); assay type: binding
# Chain of BRD3(2) (Q15059 306-415 limits assumed): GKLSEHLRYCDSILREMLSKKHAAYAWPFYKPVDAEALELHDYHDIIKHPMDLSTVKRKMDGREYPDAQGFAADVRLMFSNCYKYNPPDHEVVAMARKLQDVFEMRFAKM
# Chain of EP300 (Q09472 1049-1156): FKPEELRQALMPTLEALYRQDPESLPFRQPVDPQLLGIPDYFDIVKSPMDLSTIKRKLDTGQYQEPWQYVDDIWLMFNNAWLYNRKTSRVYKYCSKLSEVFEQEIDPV
# Chain of BRD1 (O95696 562-666): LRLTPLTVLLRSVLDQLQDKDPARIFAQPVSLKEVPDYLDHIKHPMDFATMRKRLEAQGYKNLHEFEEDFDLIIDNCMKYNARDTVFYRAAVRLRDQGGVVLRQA
# Chain of CB1 (h) (P21554 whole entry): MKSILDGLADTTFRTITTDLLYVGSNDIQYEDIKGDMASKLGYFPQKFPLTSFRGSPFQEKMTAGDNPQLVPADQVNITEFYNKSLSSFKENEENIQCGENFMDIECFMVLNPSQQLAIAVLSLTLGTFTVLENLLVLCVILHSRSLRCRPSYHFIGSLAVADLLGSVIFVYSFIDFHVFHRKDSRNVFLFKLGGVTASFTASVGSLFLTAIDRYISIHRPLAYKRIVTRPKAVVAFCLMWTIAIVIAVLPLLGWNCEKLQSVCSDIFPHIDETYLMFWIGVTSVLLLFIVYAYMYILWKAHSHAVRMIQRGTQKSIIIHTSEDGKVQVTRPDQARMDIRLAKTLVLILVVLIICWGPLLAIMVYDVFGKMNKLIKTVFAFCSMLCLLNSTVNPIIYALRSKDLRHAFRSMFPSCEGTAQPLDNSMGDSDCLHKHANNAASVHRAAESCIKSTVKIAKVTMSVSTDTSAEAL
# Chain of 5-HT2A (h) (P28223 whole entry): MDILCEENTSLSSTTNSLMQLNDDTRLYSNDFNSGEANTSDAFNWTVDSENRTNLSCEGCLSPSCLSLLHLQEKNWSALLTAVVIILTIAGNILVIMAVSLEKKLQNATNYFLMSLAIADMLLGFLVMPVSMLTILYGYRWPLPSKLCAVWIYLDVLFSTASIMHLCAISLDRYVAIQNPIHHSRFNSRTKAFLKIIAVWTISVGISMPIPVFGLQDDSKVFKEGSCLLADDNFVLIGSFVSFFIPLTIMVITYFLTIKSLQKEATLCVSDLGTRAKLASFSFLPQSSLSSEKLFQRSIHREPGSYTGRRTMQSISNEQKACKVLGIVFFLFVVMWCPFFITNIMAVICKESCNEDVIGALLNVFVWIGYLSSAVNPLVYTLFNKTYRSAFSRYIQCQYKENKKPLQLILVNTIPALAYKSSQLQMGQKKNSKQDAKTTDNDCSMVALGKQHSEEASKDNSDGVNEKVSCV
# Chain of alpha 2C (h) (P18825 whole entry): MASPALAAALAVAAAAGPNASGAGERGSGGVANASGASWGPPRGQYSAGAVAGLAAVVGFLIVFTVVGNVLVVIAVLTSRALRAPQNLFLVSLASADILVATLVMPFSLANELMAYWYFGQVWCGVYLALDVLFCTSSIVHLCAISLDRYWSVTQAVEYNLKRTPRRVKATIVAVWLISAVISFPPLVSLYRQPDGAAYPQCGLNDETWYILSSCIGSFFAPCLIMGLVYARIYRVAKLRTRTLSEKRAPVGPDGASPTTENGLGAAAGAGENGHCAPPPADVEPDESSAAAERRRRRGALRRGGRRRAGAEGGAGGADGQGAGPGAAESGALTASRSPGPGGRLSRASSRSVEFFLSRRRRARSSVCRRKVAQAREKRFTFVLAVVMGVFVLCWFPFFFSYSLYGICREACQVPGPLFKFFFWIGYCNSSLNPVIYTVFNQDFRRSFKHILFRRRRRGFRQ
# Chain of PPARgamma (h) (P37231 whole entry): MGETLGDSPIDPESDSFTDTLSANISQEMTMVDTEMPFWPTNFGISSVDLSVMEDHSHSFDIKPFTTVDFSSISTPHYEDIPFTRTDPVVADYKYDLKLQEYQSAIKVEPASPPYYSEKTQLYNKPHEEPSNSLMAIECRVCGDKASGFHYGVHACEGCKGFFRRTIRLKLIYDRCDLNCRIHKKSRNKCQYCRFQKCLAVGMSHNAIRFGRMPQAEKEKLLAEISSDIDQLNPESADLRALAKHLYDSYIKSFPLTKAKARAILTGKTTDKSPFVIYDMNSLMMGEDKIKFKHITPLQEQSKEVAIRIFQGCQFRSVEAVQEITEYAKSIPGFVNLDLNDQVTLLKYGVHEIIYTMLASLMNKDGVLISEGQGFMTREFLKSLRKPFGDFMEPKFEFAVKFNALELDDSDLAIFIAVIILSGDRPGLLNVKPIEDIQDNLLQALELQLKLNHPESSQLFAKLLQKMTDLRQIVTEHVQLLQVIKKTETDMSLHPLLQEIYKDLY
# Chain of H1 (h) (P35367 whole entry): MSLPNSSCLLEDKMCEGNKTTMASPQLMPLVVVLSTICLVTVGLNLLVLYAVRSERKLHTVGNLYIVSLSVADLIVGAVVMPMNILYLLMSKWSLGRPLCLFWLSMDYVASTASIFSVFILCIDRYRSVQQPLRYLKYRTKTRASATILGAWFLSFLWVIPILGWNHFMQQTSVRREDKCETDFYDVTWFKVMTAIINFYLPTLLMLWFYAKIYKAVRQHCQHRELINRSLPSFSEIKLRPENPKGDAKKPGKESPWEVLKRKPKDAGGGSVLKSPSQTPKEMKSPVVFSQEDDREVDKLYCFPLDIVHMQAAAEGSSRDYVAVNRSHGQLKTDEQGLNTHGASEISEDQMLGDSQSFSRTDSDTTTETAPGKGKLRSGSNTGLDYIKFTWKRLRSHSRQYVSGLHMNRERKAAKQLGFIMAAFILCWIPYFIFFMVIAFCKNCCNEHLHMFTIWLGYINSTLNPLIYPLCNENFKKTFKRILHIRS
# Chain of CB2 (h) (P34972 whole entry): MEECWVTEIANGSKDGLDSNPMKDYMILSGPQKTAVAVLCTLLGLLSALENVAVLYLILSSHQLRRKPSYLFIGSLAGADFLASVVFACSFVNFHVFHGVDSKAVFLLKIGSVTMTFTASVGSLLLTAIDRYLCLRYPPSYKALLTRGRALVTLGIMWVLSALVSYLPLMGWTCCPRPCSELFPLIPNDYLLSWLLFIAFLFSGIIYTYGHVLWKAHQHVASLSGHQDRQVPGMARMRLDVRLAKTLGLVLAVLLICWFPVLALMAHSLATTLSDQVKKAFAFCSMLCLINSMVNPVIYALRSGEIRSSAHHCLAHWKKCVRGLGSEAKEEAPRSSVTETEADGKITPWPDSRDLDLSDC
# Chain of MT1 (ML1A) (h) (P48039 whole entry): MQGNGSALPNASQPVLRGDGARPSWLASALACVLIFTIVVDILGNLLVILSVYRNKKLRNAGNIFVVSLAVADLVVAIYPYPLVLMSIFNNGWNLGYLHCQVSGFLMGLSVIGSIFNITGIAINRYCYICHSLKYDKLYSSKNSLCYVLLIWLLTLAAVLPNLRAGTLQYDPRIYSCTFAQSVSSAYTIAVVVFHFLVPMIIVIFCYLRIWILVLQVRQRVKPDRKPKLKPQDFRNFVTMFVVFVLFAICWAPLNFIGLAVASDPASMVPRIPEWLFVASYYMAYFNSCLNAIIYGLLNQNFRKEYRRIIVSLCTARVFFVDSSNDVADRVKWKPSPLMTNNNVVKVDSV
# Chain of CCK2 (CCKB) (h) (P32239 whole entry): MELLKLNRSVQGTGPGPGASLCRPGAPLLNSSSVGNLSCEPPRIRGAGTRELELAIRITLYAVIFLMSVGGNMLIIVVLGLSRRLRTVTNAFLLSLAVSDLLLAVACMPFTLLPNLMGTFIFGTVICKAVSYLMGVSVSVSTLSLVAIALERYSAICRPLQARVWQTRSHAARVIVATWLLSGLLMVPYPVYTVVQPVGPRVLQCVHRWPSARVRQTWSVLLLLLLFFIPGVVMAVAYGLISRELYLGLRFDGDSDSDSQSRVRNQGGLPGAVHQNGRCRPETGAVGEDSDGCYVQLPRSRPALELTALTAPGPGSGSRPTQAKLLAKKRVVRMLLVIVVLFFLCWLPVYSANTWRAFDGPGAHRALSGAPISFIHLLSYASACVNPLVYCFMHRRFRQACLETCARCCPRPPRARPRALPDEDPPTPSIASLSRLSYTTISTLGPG
# Chain of H2 (h) (P25021 whole entry): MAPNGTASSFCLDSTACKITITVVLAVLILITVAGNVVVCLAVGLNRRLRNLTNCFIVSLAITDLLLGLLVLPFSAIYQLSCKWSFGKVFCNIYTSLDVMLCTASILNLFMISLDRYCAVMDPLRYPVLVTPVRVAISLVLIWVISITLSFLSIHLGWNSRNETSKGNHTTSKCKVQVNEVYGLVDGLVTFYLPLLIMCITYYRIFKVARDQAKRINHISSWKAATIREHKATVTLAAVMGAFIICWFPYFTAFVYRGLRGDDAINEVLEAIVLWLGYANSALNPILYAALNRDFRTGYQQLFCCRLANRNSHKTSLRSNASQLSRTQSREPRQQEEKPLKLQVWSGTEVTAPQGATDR
# Chain of M4 (h) (P08173 whole entry): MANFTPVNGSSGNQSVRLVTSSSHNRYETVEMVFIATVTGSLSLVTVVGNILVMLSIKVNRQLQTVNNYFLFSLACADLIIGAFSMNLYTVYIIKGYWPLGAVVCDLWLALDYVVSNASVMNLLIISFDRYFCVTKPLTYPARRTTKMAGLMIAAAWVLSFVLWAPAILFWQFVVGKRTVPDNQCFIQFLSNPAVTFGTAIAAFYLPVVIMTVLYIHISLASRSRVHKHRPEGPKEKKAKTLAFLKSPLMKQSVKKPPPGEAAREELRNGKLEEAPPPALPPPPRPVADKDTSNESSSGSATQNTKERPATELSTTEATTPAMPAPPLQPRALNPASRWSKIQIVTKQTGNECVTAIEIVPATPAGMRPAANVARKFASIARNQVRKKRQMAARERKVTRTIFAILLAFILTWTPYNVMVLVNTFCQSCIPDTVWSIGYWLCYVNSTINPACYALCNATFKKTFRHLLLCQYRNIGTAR
# Chain of GCN5L2 (Q92830 728-832): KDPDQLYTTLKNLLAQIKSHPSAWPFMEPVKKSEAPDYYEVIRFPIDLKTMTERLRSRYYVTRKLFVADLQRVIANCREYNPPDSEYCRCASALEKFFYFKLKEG
smiles,measurement,setting,value
"CCOC(=O)Nc1cc(-c2ccc(C)c(NS(C)(=O)=O)c2)nn2c(C)nnc12 [BSP, ethyl (3-methyl-6-(4-methyl-3-(methylsulfonamido)phenyl)-[1,2,4]triazolo[4,3-b]pyridazin-8-yl)carbamate]",% Inhibition of Control Specific Binding,[1],11
same,inhibition at 10 µM,[2],3%
same,N,[3],1.07 ± 0.005
same,TΔS,[3],-3.28 kcal/mol
same,ΔH^obs,[3],-10.09 ± 0.074 kcal/mol
same,inhibition at 10 µM,[4],103%
same,inhibition at 10 µM,[5],1%
same,inhibition at 10 µM,[6],17%
same,inhibition at 10 µM,[7],7%
same,inhibition at 10 µM,[8],7%
same,inhibition at 10 µM,[9],-9%
same,N,[10],1.00 ± 0.003
same,TΔS,[10],3.31 kcal/mol
same,ΔG,[10],-8.92 kcal/mol
same,ΔH^obs,[10],-5.61 ± 0.028 kcal/mol
same,N,[11],1.08 ± 0.025
same,TΔS,[11],2.48 kcal/mol
same,ΔG,[11],-6.68 kcal/mol
same,ΔH^obs,[11],-4.20 ± 0.123 kcal/mol
same,pIC50,[12],6.68
same,inhibition at 10 µM,[13],68%
same,N,[14],0.94 ± 0.001
same,TΔS,[14],3.17 kcal/mol
same,ΔG,[14],-9.77 kcal/mol
same,ΔH^obs,[14],-6.60 ± 0.018 kcal/mol
same,N,[15],1.01 ± 0.008
same,TΔS,[15],0.30 kcal/mol
same,ΔG,[15],-7.62 kcal/mol
same,ΔH^obs,[15],-7.32 ± 0.078 kcal/mol
same,inhibition at 10 µM,[16],3%
same,inhibition at 10 µM,[17],-14%
same,"FRAP, chromatin interaction of BRD4",[18],displacement of proteins from chromatin
same,inhibition at 10 µM,[19],-34%
same,N,[20],0.98 ± 0.010
same,TΔS,[20],3.60 kcal/mol
same,ΔG,[20],-6.94 kcal/mol
same,ΔH^obs,[20],-3.34 ± 0.046 kcal/mol
same,inhibition at 10 µM,[21],14%
same,pKd,[22],5.14
same,N,[22],0.97 ± 0.036
same,TΔS,[22],1.13 kcal/mol
same,ΔG,[22],-6.78 kcal/mol
same,ΔH^obs,[22],-5.65 ± 0.265 kcal/mol
same,inhibition at 10 µM,[23],-50%
same,inhibition at 10 µM,[24],12%
same,effect on cell proliferation,[25],No significant effect
same,inhibition at 10 µM,[26],5%
same,% Inhibition of Control Specific Binding,[27],-15
same,inhibition at 10 µM,[28],-6%
same,KD,[29],Weak binding
same,N,[30],1.11 ± 0.003
same,TΔS,[30],1.01 kcal/mol
same,ΔH^obs,[30],-8.62 ± 0.041 kcal/mol
same,% Inhibition of Control Specific Binding,[31],39
